Measured values as given in PubChem BioAssay AID256 (DTP/NCI, 2004).
Where “and” joins values, the source holds several entries; their conditions need not be identical. Identical values can stand only once. Toxic doses and inconclusive results are not listed.

Test system: CD2F1 mice, L1210 leukemia ip, survival T/C
Assay: NCI In Vivo Anticancer Drug Screen. Data for tumor model L1210 Leukemia (intraperitoneal) in CD2F1 (CDF1) mice
Conditions: higher = longer survival
Outline: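 Antitumor effect is scored in animals hosting a serially transplanted tumor. Values compare compound-dosed animals against vehicle-only controls as a simple quotient.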

[1] = endpoint: mean survival time, dose: 100.0 mg/kg/injection, schedule: Q04DX003 (ip), vehicle: saline with Tween-80
[2] = endpoint: mean survival time, dose: 200.0 mg/kg/injection, schedule: Q04DX003 (ip), vehicle: saline with Tween-80
[3] = endpoint: mean survival time, dose: 400.0 mg/kg/injection, schedule: Q04DX003 (ip), vehicle: saline with Tween-80
[4] = endpoint: mean survival time, dose: 100.0 mg/kg/injection, schedule: Q01DX009 (ip), vehicle: saline with Tween-80
[5] = endpoint: mean survival time, dose: 200.0 mg/kg/injection, schedule: Q01DX009 (ip), vehicle: saline with Tween-80
[6] = endpoint: mean survival time, dose: 400.0 mg/kg/injection, schedule: Q01DX009 (ip), vehicle: saline with Tween-80
[7] = endpoint: mean survival time, dose: 50.0 mg/kg/injection, schedule: Q01DX009 (ip), vehicle: saline with Tween-80
[8] = endpoint: mean survival time, dose: 100.0 mg/kg/injection, schedule: Q01DX009 (ip), vehicle: other
[9] = endpoint: mean survival time, dose: 200.0 mg/kg/injection, schedule: Q01DX009 (ip), vehicle: other
[10] = endpoint: mean survival time, dose: 25.0 mg/kg/injection, schedule: Q04DX002 (ip), vehicle: saline
[11] = endpoint: mean survival time, dose: 50.0 mg/kg/injection, schedule: Q04DX002 (ip), vehicle: saline

O=C(Nc1ccccc1)c1ccccc1C(O)(c1ccccc1)c1ccccn1 (stereo not given)
T/C [1]: 97 % of control
T/C [2]: 101 % of control
T/C [3]: 86 % of control

CCOC(=O)Nc1cc2c(c(N)n1)N=C(CN(C)c1ccccc1)CN2
T/C (endpoint: mean survival time, dose: 6.25 mg/kg/injection, schedule: Q01DX009 (ip), vehicle: Klucel (hydroxypropylcellulose) (HPC)): 110 % of control
T/C (endpoint: mean survival time, dose: 12.5 mg/kg/injection, schedule: Q01DX009 (ip), vehicle: Klucel (hydroxypropylcellulose) (HPC)): 87 % of control

OCCC1=CCCCC1
T/C [4]: 91 % of control
T/C [5]: 97 % of control
T/C [6]: 98 % of control

CCOC(=O)C(CCP(=O)(OCC)OCC)NC(=O)c1ccc(N(C)Cc2cnc3nc(N)nc(N)c3n2)cc1 (stereo not given)
T/C (endpoint: median survival time, dose: 0.38 mg/kg/injection, schedule: Q01DX009 (ip), vehicle: saline): 101 % of control
T/C (endpoint: median survival time, dose: 0.75 mg/kg/injection, schedule: Q01DX009 (ip), vehicle: saline): 102 % of control
T/C (endpoint: median survival time, dose: 1.5 mg/kg/injection, schedule: Q01DX009 (ip), vehicle: saline): 102 % of control
T/C (endpoint: median survival time, dose: 3.0 mg/kg/injection, schedule: Q01DX009 (ip), vehicle: saline): 102 % of control
T/C (endpoint: median survival time, dose: 6.0 mg/kg/injection, schedule: Q01DX009 (ip), vehicle: saline): 101 % of control
T/C (endpoint: median survival time, dose: 12.0 mg/kg/injection, schedule: Q01DX009 (ip), vehicle: saline): 102 % of control

CCOC(=O)CCCCCCCCC(=O)Nc1ccc(-n2[nH]c(=O)cc2C)cc1
T/C [1]: 92 % of control
T/C [2]: 92 % of control
T/C [3]: 87 % of control

COC1=CC(=O)C(OC)=C(OC)C1=O
T/C (endpoint: mean survival time, dose: 3.12 mg/kg/injection, schedule: Q01DX009 (ip), vehicle: saline with Tween-80): 94 % of control
T/C (endpoint: mean survival time, dose: 6.25 mg/kg/injection, schedule: Q01DX009 (ip), vehicle: saline with Tween-80): 97 % of control
T/C (endpoint: mean survival time, dose: 12.5 mg/kg/injection, schedule: Q01DX009 (ip), vehicle: saline with Tween-80): 97 % of control
T/C (endpoint: mean survival time, dose: 25.0 mg/kg/injection, schedule: Q01DX009 (ip), vehicle: saline with Tween-80): 100 % of control
T/C [7]: 105 % of control

CCOC(=O)Nc1ccc(F)cc1
T/C [8]: 98 % of control
T/C [9]: 98 % of control
T/C (endpoint: mean survival time, dose: 400.0 mg/kg/injection, schedule: Q01DX009 (ip), vehicle: other): 107 % of control

C[N+](C)(C)CCS(=O)(=O)c1ccc(Cl)cc1
T/C [10]: 90 % of control
T/C [11]: 94 % of control
T/C (endpoint: mean survival time, dose: 100.0 mg/kg/injection, schedule: Q04DX002 (ip), vehicle: saline): 86 % of control

O=[N+]([O-])CC(OCCO)C(Cl)(Cl)Cl (stereo not given)
T/C (endpoint: mean survival time, dose: 6.25 mg/kg/injection, schedule: Q01DX009 (ip), vehicle: acetone): 97 % of control
T/C (endpoint: mean survival time, dose: 12.5 mg/kg/injection, schedule: Q01DX009 (ip), vehicle: acetone): 102 % of control
T/C (endpoint: mean survival time, dose: 12.5 mg/kg/injection, schedule: Q04DX003 (ip), vehicle: acetone): 90 % of control
T/C (endpoint: mean survival time, dose: 25.0 mg/kg/injection, schedule: Q01DX009 (ip), vehicle: acetone): 97 % of control
T/C (endpoint: mean survival time, dose: 25.0 mg/kg/injection, schedule: Q04DX003 (ip), vehicle: acetone): 87 % of control

CC12CCC(C1)C(C)(C)C2(O)c1ccccc1 (stereo not given)
T/C [1]: 92 % of control

O=C(O)C1CCC[N-]C1.O=C(O)C1CCC[N-]C1.[Cl][Pt+2][Cl] (stereo not given)
T/C (endpoint: mean survival time, dose: 5.0 mg/kg/injection, schedule: Q04DX003 (ip), vehicle: saline with Tween-80): 95 % of control
T/C (endpoint: mean survival time, dose: 10.0 mg/kg/injection, schedule: Q04DX003 (ip), vehicle: saline with Tween-80): 112 % of control
T/C (endpoint: mean survival time, dose: 20.0 mg/kg/injection, schedule: Q04DX003 (ip), vehicle: saline with Tween-80): 107 % of control

Nc1cc(NC(c2ccccc2)c2ccccc2)c2[nH]cnc2n1
T/C (endpoint: mean survival time, dose: 100.0 mg/kg/injection, schedule: Q01DX001 (ip), vehicle: other): 91 % of control
T/C (endpoint: mean survival time, dose: 200.0 mg/kg/injection, schedule: Q01DX001 (ip), vehicle: other): 95 % of control

C=C(C)C(=O)OC1C/C(CO)=C\C(O)C/C(C)=C/C2OC(=O)C(=C)C21 (stereo not given)
T/C (endpoint: mean survival time, dose: 1.25 mg/kg/injection, schedule: Q01DX009 (ip), vehicle: saline + alcohol): 103 % of control and 104 % of control
T/C (endpoint: mean survival time, dose: 2.5 mg/kg/injection, schedule: Q01DX009 (ip), vehicle: saline + alcohol): 116 % of control and 101 % of control
T/C (endpoint: mean survival time, dose: 3.75 mg/kg/injection, schedule: Q01DX009 (ip), vehicle: saline + alcohol): 114 % of control
T/C (endpoint: mean survival time, dose: 5.0 mg/kg/injection, schedule: Q01DX009 (ip), vehicle: saline + alcohol): 113 % of control and 123 % of control
T/C (endpoint: mean survival time, dose: 7.5 mg/kg/injection, schedule: Q01DX009 (ip), vehicle: saline + alcohol): 114 % of control
T/C (endpoint: mean survival time, dose: 10.0 mg/kg/injection, schedule: Q01DX009 (ip), vehicle: saline + alcohol): 110 % of control
T/C (endpoint: mean survival time, dose: 15.0 mg/kg/injection, schedule: Q01DX009 (ip), vehicle: saline + alcohol): 106 % of control
T/C (endpoint: mean survival time, dose: 20.0 mg/kg/injection, schedule: Q01DX009 (ip), vehicle: saline + alcohol): 122 % of control
T/C (endpoint: mean survival time, dose: 30.0 mg/kg/injection, schedule: Q01DX009 (ip), vehicle: saline + alcohol): 120 % of control
T/C (endpoint: mean survival time, dose: 40.0 mg/kg/injection, schedule: Q01DX009 (ip), vehicle: saline + alcohol): 97 % of control

O=C(CCCCCC(=O)OCCBr)OCCBr
T/C (endpoint: mean survival time, dose: 50.0 mg/kg/injection, schedule: Q04DX003 (ip), vehicle: saline sonified): 102 % of control
T/C (endpoint: mean survival time, dose: 100.0 mg/kg/injection, schedule: Q04DX003 (ip), vehicle: saline sonified): 100 % of control
T/C (endpoint: mean survival time, dose: 200.0 mg/kg/injection, schedule: Q04DX003 (ip), vehicle: saline sonified): 93 % of control

CS(=O)(=O)C(Br)S(C)(=O)=O
T/C (endpoint: mean survival time, dose: 3.13 mg/kg/injection, schedule: Q01DX009 (ip), vehicle: saline): 102 % of control
T/C (endpoint: mean survival time, dose: 6.25 mg/kg/injection, schedule: Q01DX009 (ip), vehicle: saline): 102 % of control
T/C (endpoint: mean survival time, dose: 6.25 mg/kg/injection, schedule: Q04DX003 (ip), vehicle: saline): 96 % of control
T/C (endpoint: mean survival time, dose: 12.5 mg/kg/injection, schedule: Q01DX009 (ip), vehicle: saline): 101 % of control
T/C (endpoint: mean survival time, dose: 12.5 mg/kg/injection, schedule: Q04DX003 (ip), vehicle: saline): 93 % of control
T/C (endpoint: mean survival time, dose: 25.0 mg/kg/injection, schedule: Q04DX003 (ip), vehicle: saline): 109 % of control

CC(=O)C(C(C)=O)C1C=CC=CC=C1
T/C [7]: 100 % of control
T/C [5]: 94 % of control

O=S(=O)(OC(Cc1ccccc1)Cc1ccccc1)c1ccc(Br)cc1
T/C [7]: 95 % of control
T/C [4]: 91 % of control
T/C [5]: 95 % of control

C/C=C/C=C\C=C/C(O)CC(OP(=O)(O)O)C(C)(O)/C=C/C1CC=CC(=O)O1 (stereo not given)
T/C (endpoint: median survival time, dose: 0.38 mg/kg/injection, schedule: Q01DX009 (ip), vehicle: water): 116 % of control
T/C (endpoint: median survival time, dose: 1.5 mg/kg/injection, schedule: Q01DX009 (ip), vehicle: water): 180 % of control
T/C (endpoint: median survival time, dose: 3.0 mg/kg/injection, schedule: Q01DX009 (ip), vehicle: water): 153 % of control and 168 % of control
T/C (endpoint: median survival time, dose: 6.0 mg/kg/injection, schedule: Q01DX009 (ip), vehicle: water): 120 % of control and 226 % of control

CCCCCCCCCCCCCCCCNCC(O)CN (stereo not given)
T/C (endpoint: mean survival time, dose: 12.5 mg/kg/injection, schedule: Q04DX002 (ip), vehicle: saline): 95 % of control
T/C [10]: 106 % of control
T/C [11]: 103 % of control

CC(=O)OC(OC(C)=O)c1ccc([N+](=O)[O-])cc1
T/C [4]: 103 % of control
T/C [1]: 105 % of control
T/C [5]: 97 % of control
T/C [2]: 100 % of control
T/C [6]: 97 % of control
T/C [3]: 92 % of control

Cn1c2ccccc2c2ccccc21
T/C [1]: 100 % of control
T/C [2]: 102 % of control
T/C [3]: 97 % of control

CCOC(=O)CC(=O)c1ccccc1SC
T/C [4]: 98 % of control
T/C [5]: 96 % of control
T/C [6]: 96 % of control

O=C(NCCCl)Nc1ccc(O)cc1
T/C (endpoint: mean survival time, dose: 100.0 mg/kg/injection, schedule: Q01DX001 (ip), vehicle: carboxymethylcellulose (CMC)): 101 % of control
T/C (endpoint: mean survival time, dose: 200.0 mg/kg/injection, schedule: Q01DX001 (ip), vehicle: carboxymethylcellulose (CMC)): 98 % of control
T/C (endpoint: mean survival time, dose: 400.0 mg/kg/injection, schedule: Q01DX001 (ip), vehicle: carboxymethylcellulose (CMC)): 104 % of control

COC(=O)C1(C(=O)OC)CC1C(=O)c1ccccc1 (stereo not given)
T/C [1]: 98 % of control
T/C [2]: 98 % of control
T/C [3]: 95 % of control

COc1c2c(c(OC)c3c1C(=O)c1ccccc1C3=O)CC=CC2
T/C (endpoint: mean survival time, dose: 12.5 mg/kg/injection, schedule: Q01DX009 (ip), vehicle: other): 105 % of control
T/C (endpoint: mean survival time, dose: 25.0 mg/kg/injection, schedule: Q01DX009 (ip), vehicle: other): 100 % of control
T/C (endpoint: mean survival time, dose: 44.0 mg/kg/injection, schedule: Q01DX009 (ip), vehicle: other): 92 % of control
T/C (endpoint: mean survival time, dose: 50.0 mg/kg/injection, schedule: Q01DX009 (ip), vehicle: other): 96 % of control
T/C (endpoint: mean survival time, dose: 66.0 mg/kg/injection, schedule: Q01DX009 (ip), vehicle: other): 90 % of control
T/C [8]: 121 % of control and 90 % of control
T/C [9]: 105 % of control
